We go through four compounds from patent publication US20070179113A1, “GM-CSF gene therapy for Crohn's disease using an improved regulated expression system” (Schering Aktiengesellachaft, priority 2005, published 2007).

Like-named read-outs stand apart in the source and are kept apart here.

What is called Kd is the concentration at which binding is half-saturated.

Data set [1] has as its system acute EAE in SJL mice. Description: Mouse acute EAE model, mIFN-β protein. It is filed as in vivo. The conditions noted are these: IP twice daily; Mesopram 9 mg/kg, Prednisolone 2.5 mg/kg.
The subject of data set [2] is DSS-induced colitis in Balb/C mice. The data set can be described thus: DSS-induced colitis model (5% DSS), validation, Disease Activity Index. It is filed as in vivo. The conditions noted are these: daily treatment, Mesopram/Metronidazole 50 mg/kg IP, mGM-CSF 5 μg non-pegylated, 5 or 10 μg pegylated. The procedure:
Disease was induced in BalbC mice (N=10/group) by DSS (5%) applied daily in the drinking water. Mesopram, Metronidazole, or yeast expressed non-pegylated respectively pegylated mGM-CSF, was administered daily over a period of 8 days. Clinical scores (Daily Activity Index (DAI), a cumulative index of: weight loss, stool consistency, and rectal bleeding) were recorded daily.
(§1) Likewise, the DSS-induced mouse colitis model is useful for evaluating therapies for UC, IBD and CD. Disease is induced in mice by daily administration of 5% or 7% dextran sodium sulfate (DSS) in the drinking water over 8 days. Disease progression is monitored by the Daily Activity Index (DAI), a cumulative index of: weight loss, stool consistency, and rectal bleeding, which mimics the symptoms of UC, IBD and/or CD.
vi. DSS-induced colitis model. Prior to the gene delivery study the model was established and validated in Balb/C mice using non-pegylated and pegylated mGM-CSF protein. Disease was induced in Balb/C mice with 5% dextran sodium sulfate (DSS), provided in the drinking water every day over a period of 8 days. As the main endpoint, the Disease Activity Index (DAI, a cumulative index of: weight loss, stool consistency, and rectal bleeding) was recorded daily. […]

In data set [3] the test system is DSS-induced colitis. Description: DSS-induced colitis model (7% DSS), proof of concept with pCMV-GMCSF plasmid DNA. Type of data set: in vivo, mice. The conditions noted are these: plasmid single injection day 0 + EP, drugs and protein daily. The procedure: Two concentrations of pCMV-mGMCSF were tested side by side with a control plasmid (pNull) and two mGM-CSF protein formulations, non-pegylated and pegylated in the DSS-induced colitis model (N=10/group). A single plasmid DNA injection was administered at day 0 followed by electroporation. Murine GM-CSF protein was injected s.c. daily. Disease was induced with 7% DSS in the drinking water and clinical scores (DIA) were recorded daily.
as §1
vii. […] In this study the efficacy of pGMCSF plasmid DNA was evaluated side by side with Mesopram, Metronidazole, non-pegylated or pegylated mGM-CSF. The disease was induced using 7% DSS, administered daily in the drinking water. Mesopram, Metronidazole and mGM-CSF protein were administered daily, using the same dosing regimen as described for the validation study. pGMCSF plasmid DNA was injected at day 0 followed by electroporation. […]

Data set [4] is described as follows: mGM-CSF concentration in sera at day 8 of the DSS colitis study. The conditions noted are these: final day of DSS study.
Description: (§2) At day 8, the final day of the study, mGM-CSF concentrations were measured in sera of all mice.
For data set [5] the following is noted: mouse, in vivo.
Description: as §2
Data set [6] has as its target GAL-4 DBS. The settings on record: read-out: Kd for binding; cited from earlier work.

For `CCCOc1cc([C@]2(C)CNC(=O)O2)ccc1OC` [Mesopram, reference compound], the “clinical scores of EAE, positive controls” value in data set [1] was “significantly decreased clinical scores”. Moreover, in data set [2], the DAI score entry is “significantly reduced”. Moreover, the “disease scores (DAI)” value in data set [3] was “efficacious”. Moreover, the “GM-CSF in sera at day 8” value in data set [4] is listed as “not detectable”.

On to `C[C@]12C=CC(=O)C=C1CC[C@@H]1[C@@H]2[C@@H](O)C[C@@]2(C)[C@H]1CC[C@]2(O)C(=O)CO` [Prednisolone], for which the “clinical scores of EAE, positive controls” value in data set [1] was “significantly decreased clinical scores”.

Consider `Cc1ncc([N+](=O)[O-])n1CCO` [Metronidazole, reference compound], for which the DAI score entry in data set [2] is “significantly reduced”. The “disease scores (DAI)” value in data set [3] was “efficacious”. In addition, the “GM-CSF in sera at day 8” value in data set [5] was “not detectable”.

“GAL-4 residues 1-100: N-terminal DNA binding fragment of yeast GAL-4 protein”: in data set [6], the Kd was 3 nM.
